From PubChem BioAssay (NCI)
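All cell lines were grown in 96-well plates and treated with compound for 48 hours. TGI denotes the concentration required for complete inhibition of growth.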

Legend:
Experiment in all cases: NCI-60 cell line screen, 48 h
CAKI-1 renal = system: CAKI-1 renal
MOLT-4 leukemia = system: MOLT-4 leukemia
HCC-2998 colon = system: HCC-2998 colon
SK-MEL-28 melanoma = system: SK-MEL-28 melanoma
EKVX NSCLC = system: EKVX NSCLC
UACC-257 melanoma = system: UACC-257 melanoma
DMS 114 small cell lung = system: DMS 114 small cell lung
UO-31 renal = system: UO-31 renal
KM20L2 colon = system: KM20L2 colon
COLO 205 colon = system: COLO 205 colon
RXF-631 renal = system: RXF-631 renal
A549 NSCLC = system: A549 NSCLC
IGROV1 ovarian = system: IGROV1 ovarian
XF 498 CNS = system: XF 498 CNS
NCI-H460 lung = system: NCI-H460 lung
SK-OV-3 ovarian = system: SK-OV-3 ovarian
NCI-H522 lung = system: NCI-H522 lung
OVCAR-5 ovarian = system: OVCAR-5 ovarian
SK-MEL-2 melanoma = system: SK-MEL-2 melanoma
RPMI-8226 leukemia = system: RPMI-8226 leukemia
SNB-19 CNS = system: SNB-19 CNS
HCT-15 colon = system: HCT-15 colon
RXF 393 renal = system: RXF 393 renal
SW-620 colon = system: SW-620 colon
OVCAR-4 ovarian = system: OVCAR-4 ovarian
DLD-1 colon = system: DLD-1 colon
NCI-H226 lung = system: NCI-H226 lung
KM12 colon = system: KM12 colon
K-562 leukemia = system: K-562 leukemia
SK-MEL-5 melanoma = system: SK-MEL-5 melanoma
HL-60(TB) leukemia = system: HL-60(TB) leukemia
M19-MEL melanoma = system: M19-MEL melanoma
M14 melanoma = system: M14 melanoma
OVCAR-3 ovarian = system: OVCAR-3 ovarian
MALME-3M melanoma = system: MALME-3M melanoma
786-0 renal = system: 786-0 renal
SNB-75 CNS = system: SNB-75 CNS
HOP-62 NSCLC = system: HOP-62 NSCLC
SF-539 CNS = system: SF-539 CNS
U251 CNS = system: U251 CNS
HOP-92 NSCLC = system: HOP-92 NSCLC
CCRF-CEM leukemia = system: CCRF-CEM leukemia
LOX IMVI melanoma = system: LOX IMVI melanoma
NCI-H23 lung = system: NCI-H23 lung
TK-10 renal = system: TK-10 renal
DMS 273 small cell lung = system: DMS 273 small cell lung
HCT-116 colon = system: HCT-116 colon
SF-295 CNS = system: SF-295 CNS
HT29 colon = system: HT29 colon
SF-268 CNS = system: SF-268 CNS
UACC-62 melanoma = system: UACC-62 melanoma
A498 renal = system: A498 renal
HOP-18 NSCLC = system: HOP-18 NSCLC
ACHN renal = system: ACHN renal
SNB-78 CNS = system: SNB-78 CNS
SN12C renal = system: SN12C renal
LXFL 529 NSCLC = system: LXFL 529 NSCLC

O=S(c1ccc(O)cc1)c1ccc(O)cc1
TGI (CAKI-1 renal): > 100 µM | TGI (MOLT-4 leukemia): > 100 µM | TGI (HCC-2998 colon): > 100 µM | TGI (SK-MEL-28 melanoma): > 100 µM | TGI (EKVX NSCLC): > 100 µM | TGI (UACC-257 melanoma): > 100 µM | TGI (DMS 114 small cell lung): > 100 µM | TGI (UO-31 renal): > 100 µM | TGI (KM20L2 colon): > 100 µM | TGI (COLO 205 colon): > 100 µM | TGI (RXF-631 renal): > 100 µM | TGI (A549 NSCLC): > 100 µM | TGI (IGROV1 ovarian): > 100 µM | TGI (XF 498 CNS): > 100 µM | TGI (NCI-H460 lung): > 100 µM | TGI (SK-OV-3 ovarian): > 100 µM | TGI (NCI-H522 lung): > 100 µM | TGI (OVCAR-5 ovarian): > 100 µM | TGI (SK-MEL-2 melanoma): > 100 µM | TGI (RPMI-8226 leukemia): > 100 µM | TGI (SNB-19 CNS): > 100 µM | TGI (HCT-15 colon): > 100 µM | TGI (RXF 393 renal): > 100 µM | TGI (SW-620 colon): > 100 µM | TGI (OVCAR-4 ovarian): > 100 µM | TGI (DLD-1 colon): > 100 µM | TGI (NCI-H226 lung): > 100 µM | TGI (KM12 colon): > 100 µM | TGI (K-562 leukemia): > 100 µM | TGI (SK-MEL-5 melanoma): > 100 µM | TGI (HL-60(TB) leukemia): > 100 µM | TGI (M19-MEL melanoma): > 100 µM | TGI (M14 melanoma): > 100 µM | TGI (OVCAR-3 ovarian): > 100 µM | TGI (MALME-3M melanoma): > 100 µM | TGI (786-0 renal): > 100 µM | TGI (SNB-75 CNS): > 100 µM | TGI (HOP-62 NSCLC): > 100 µM | TGI (SF-539 CNS): > 100 µM | TGI (U251 CNS): > 100 µM | TGI (HOP-92 NSCLC): > 100 µM | TGI (CCRF-CEM leukemia): > 100 µM | TGI (LOX IMVI melanoma): > 100 µM | TGI (NCI-H23 lung): > 100 µM | TGI (TK-10 renal): > 100 µM | TGI (DMS 273 small cell lung): > 100 µM | TGI (HCT-116 colon): > 100 µM | TGI (SF-295 CNS): > 100 µM | TGI (HT29 colon): > 100 µM | TGI (SF-268 CNS): > 100 µM | TGI (UACC-62 melanoma): > 100 µM

Cc1ccccc1NC(=O)C(=O)C(C(=O)c1ccccc1F)C1OC(=O)c2ccccc21 (stereo not drawn)
TGI (CAKI-1 renal): 50 µM | TGI (MOLT-4 leukemia): 52.4 µM | TGI (HCC-2998 colon): 24.8 µM | TGI (SK-MEL-28 melanoma): 35.8 µM | TGI (EKVX NSCLC): > 100 µM | TGI (UACC-257 melanoma): > 100 µM | TGI (DMS 114 small cell lung): 53.3 µM | TGI (UO-31 renal): 49.4 µM | TGI (A498 renal): > 100 µM | TGI (HOP-18 NSCLC): 79.4 µM | TGI (KM20L2 colon): > 100 µM | TGI (COLO 205 colon): 45.1 µM | TGI (RXF-631 renal): 73.6 µM | TGI (A549 NSCLC): > 100 µM | TGI (NCI-H460 lung): > 100 µM | TGI (ACHN renal): > 100 µM | TGI (SK-OV-3 ovarian): > 100 µM | TGI (SNB-78 CNS): 80.8 µM | TGI (NCI-H522 lung): 19.1 µM | TGI (OVCAR-5 ovarian): > 100 µM | TGI (SK-MEL-2 melanoma): 65.4 µM | TGI (RPMI-8226 leukemia): 48.3 µM | TGI (SNB-19 CNS): 94.8 µM | TGI (HCT-15 colon): 79.5 µM | TGI (RXF 393 renal): 24.6 µM | TGI (SW-620 colon): > 100 µM | TGI (OVCAR-4 ovarian): 60.9 µM | TGI (DLD-1 colon): 57.7 µM | TGI (NCI-H226 lung): 14.3 µM | TGI (KM12 colon): 68.2 µM | TGI (K-562 leukemia): > 100 µM | TGI (SK-MEL-5 melanoma): 86.5 µM | TGI (HL-60(TB) leukemia): 56.5 µM | TGI (SN12C renal): 71.2 µM | TGI (M14 melanoma): 30.3 µM | TGI (OVCAR-3 ovarian): 95 µM | TGI (MALME-3M melanoma): 95.1 µM | TGI (786-0 renal): 41.6 µM | TGI (SNB-75 CNS): 31.8 µM | TGI (HOP-62 NSCLC): 44.4 µM | TGI (SF-539 CNS): 27.4 µM | TGI (U251 CNS): 60.6 µM | TGI (HOP-92 NSCLC): 65.8 µM | TGI (CCRF-CEM leukemia): 62.4 µM | TGI (LOX IMVI melanoma): 33.6 µM | TGI (NCI-H23 lung): 28.2 µM | TGI (TK-10 renal): > 100 µM | TGI (DMS 273 small cell lung): 64.5 µM | TGI (HCT-116 colon): 29.1 µM | TGI (LXFL 529 NSCLC): 75.3 µM | TGI (HT29 colon): > 100 µM | TGI (SF-268 CNS): 62.5 µM
